# Test results reported in ChEMBL document CHEMBL5465560, “Selectivity Literature for EUbOPEN Chemogenomic Library” (2024).
# Experiments:
# [1] = target: T1, Calcium/calmodulin-dependent protein kinase type IV (Homo sapiens) (UniProt Q16566); experiment: Selectivity interaction (Kinase panel (KiNativ target engagement assay in Jurkat cells)) EUB0001635a CAMK4; format: cell-based; conditions: Selectivity number of off-targets 0.0, Selectivity number of targets 233.0, Source Knowledge https://www.sciencedirect.com/science/article/pii/S2451945619300674?via%3Dihub, at 1 µM
# T1 sequence (whole entry): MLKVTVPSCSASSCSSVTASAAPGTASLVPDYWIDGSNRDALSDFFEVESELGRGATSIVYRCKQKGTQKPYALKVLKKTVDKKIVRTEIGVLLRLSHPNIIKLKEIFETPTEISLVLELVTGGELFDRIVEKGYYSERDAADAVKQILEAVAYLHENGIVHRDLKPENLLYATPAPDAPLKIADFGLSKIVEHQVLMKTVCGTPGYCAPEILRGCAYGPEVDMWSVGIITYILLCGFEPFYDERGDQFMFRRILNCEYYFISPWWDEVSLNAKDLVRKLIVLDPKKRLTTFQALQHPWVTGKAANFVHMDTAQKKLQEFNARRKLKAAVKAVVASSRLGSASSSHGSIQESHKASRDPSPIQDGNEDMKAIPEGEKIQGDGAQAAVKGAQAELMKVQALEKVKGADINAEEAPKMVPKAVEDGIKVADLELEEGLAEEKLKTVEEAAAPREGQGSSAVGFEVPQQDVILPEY
# [2] = target: Proto-oncogene tyrosine-protein kinase Src (Homo sapiens, UniProt P12931); experiment: Selectivity interaction (KinomeScan (DiscoverX)) EUB0000595a SRC; conditions: at 10 µM
# [3] = target: Serine/threonine-protein kinase WNK1 (Homo sapiens) (UniProt Q9H4A3); experiment: Selectivity interaction (KinomeScan (DiscoverX)) EUB0001079a WNK1; conditions: at 1 µM
# Histamine H1 receptor = Histamine H1 receptor (Homo sapiens, UniProt P35367); experiment: Selectivity interaction (Panel of kinases, GPCRs, ion channels and transporters (enzymatic assay)) EUB0000223bCl HRH1
# [4] = target: Vascular endothelial growth factor receptor 2 (Homo sapiens, UniProt P35968); experiment: Selectivity interaction (KinomeScan (DiscoverX)) EUB0000607a KDR; conditions: at 10 µM
# [5] = target: T2, Phosphorylase b kinase gamma catalytic chain, liver/testis isoform (Homo sapiens) (UniProt P15735); experiment: Selectivity interaction (KinomeScan (DiscoverX)) EUB0000607a PHKG2; conditions: at 10 µM
# T2 sequence (whole entry): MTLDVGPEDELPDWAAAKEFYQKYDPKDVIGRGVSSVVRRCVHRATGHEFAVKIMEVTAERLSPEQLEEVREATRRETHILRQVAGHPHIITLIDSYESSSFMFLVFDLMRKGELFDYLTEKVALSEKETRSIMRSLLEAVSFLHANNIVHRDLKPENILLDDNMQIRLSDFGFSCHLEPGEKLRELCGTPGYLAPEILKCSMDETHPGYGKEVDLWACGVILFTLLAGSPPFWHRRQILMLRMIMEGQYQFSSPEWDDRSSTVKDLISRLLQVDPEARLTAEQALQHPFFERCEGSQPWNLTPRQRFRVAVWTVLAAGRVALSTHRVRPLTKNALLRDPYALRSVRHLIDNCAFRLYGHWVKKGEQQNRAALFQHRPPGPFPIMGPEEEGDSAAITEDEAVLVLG
# [6] = target: Casein kinase I isoform gamma-3 (Homo sapiens) (UniProt Q9Y6M4); experiment: Selectivity interaction (SelectScreen profiling (Invitrogen)) EUB0000607a CSNK1G3; conditions: at 2 µM
# [7] = target: Glycogen synthase kinase-3 alpha (Homo sapiens, UniProt P49840); experiment: Selectivity interaction (Kinase panel (Invitrogen)) EUB0000639a GSK3A; conditions: at 200 nM
# [8] = target: Calcium/calmodulin-dependent protein kinase type 1D (Homo sapiens) (UniProt Q8IU85); experiment: Selectivity interaction (ActivX KiNativ screen (kinase selectivity in THP-1 cell lysates)) EUB0000639a CAMK1D; format: subcellular; conditions: lysate, at 5 µM
# [9] = target: T3, Mitogen-activated protein kinase kinase kinase kinase 2 (Homo sapiens) (UniProt Q12851); experiment: Selectivity interaction (ActivX KiNativ screen (kinase selectivity in THP-1 cell lysates)) EUB0000639a MAP4K2; format: subcellular; conditions: lysate
# T3 sequence (whole entry): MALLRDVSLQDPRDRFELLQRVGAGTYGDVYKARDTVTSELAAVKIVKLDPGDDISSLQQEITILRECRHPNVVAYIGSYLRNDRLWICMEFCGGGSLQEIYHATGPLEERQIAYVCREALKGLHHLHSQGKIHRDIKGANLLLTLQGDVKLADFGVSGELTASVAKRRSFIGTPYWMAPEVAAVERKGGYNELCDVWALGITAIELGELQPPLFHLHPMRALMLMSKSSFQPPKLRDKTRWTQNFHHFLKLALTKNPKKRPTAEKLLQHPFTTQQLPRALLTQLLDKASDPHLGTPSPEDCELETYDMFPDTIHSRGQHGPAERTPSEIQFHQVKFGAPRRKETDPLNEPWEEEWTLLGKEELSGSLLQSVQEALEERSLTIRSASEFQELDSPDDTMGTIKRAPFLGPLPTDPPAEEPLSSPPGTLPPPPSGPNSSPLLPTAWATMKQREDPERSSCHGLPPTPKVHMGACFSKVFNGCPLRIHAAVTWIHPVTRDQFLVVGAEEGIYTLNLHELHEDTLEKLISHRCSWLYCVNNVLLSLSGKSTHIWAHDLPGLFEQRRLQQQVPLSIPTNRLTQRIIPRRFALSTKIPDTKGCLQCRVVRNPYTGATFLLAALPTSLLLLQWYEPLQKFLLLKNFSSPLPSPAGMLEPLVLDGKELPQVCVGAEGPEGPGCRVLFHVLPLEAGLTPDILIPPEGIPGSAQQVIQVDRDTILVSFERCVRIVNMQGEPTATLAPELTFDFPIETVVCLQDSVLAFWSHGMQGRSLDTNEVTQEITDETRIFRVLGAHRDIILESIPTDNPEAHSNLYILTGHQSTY
# [10] = target: Mitogen-activated protein kinase kinase kinase 20 (Homo sapiens) (UniProt Q9NYL2); conditions: at 10 µM
# [11] = target: Serine/threonine-protein kinase mTOR (Homo sapiens, UniProt P42345); experiment: Selectivity interaction (Ambit KINOMEscan and KiNATiv profiling in Jurkat cells) EUB0000090b MTOR; format: cell-based; conditions: at 1 µM
# Sequence of Serine/threonine-protein kinase WNK1 (Homo sapiens) (Q9H4A3 whole entry, looked up): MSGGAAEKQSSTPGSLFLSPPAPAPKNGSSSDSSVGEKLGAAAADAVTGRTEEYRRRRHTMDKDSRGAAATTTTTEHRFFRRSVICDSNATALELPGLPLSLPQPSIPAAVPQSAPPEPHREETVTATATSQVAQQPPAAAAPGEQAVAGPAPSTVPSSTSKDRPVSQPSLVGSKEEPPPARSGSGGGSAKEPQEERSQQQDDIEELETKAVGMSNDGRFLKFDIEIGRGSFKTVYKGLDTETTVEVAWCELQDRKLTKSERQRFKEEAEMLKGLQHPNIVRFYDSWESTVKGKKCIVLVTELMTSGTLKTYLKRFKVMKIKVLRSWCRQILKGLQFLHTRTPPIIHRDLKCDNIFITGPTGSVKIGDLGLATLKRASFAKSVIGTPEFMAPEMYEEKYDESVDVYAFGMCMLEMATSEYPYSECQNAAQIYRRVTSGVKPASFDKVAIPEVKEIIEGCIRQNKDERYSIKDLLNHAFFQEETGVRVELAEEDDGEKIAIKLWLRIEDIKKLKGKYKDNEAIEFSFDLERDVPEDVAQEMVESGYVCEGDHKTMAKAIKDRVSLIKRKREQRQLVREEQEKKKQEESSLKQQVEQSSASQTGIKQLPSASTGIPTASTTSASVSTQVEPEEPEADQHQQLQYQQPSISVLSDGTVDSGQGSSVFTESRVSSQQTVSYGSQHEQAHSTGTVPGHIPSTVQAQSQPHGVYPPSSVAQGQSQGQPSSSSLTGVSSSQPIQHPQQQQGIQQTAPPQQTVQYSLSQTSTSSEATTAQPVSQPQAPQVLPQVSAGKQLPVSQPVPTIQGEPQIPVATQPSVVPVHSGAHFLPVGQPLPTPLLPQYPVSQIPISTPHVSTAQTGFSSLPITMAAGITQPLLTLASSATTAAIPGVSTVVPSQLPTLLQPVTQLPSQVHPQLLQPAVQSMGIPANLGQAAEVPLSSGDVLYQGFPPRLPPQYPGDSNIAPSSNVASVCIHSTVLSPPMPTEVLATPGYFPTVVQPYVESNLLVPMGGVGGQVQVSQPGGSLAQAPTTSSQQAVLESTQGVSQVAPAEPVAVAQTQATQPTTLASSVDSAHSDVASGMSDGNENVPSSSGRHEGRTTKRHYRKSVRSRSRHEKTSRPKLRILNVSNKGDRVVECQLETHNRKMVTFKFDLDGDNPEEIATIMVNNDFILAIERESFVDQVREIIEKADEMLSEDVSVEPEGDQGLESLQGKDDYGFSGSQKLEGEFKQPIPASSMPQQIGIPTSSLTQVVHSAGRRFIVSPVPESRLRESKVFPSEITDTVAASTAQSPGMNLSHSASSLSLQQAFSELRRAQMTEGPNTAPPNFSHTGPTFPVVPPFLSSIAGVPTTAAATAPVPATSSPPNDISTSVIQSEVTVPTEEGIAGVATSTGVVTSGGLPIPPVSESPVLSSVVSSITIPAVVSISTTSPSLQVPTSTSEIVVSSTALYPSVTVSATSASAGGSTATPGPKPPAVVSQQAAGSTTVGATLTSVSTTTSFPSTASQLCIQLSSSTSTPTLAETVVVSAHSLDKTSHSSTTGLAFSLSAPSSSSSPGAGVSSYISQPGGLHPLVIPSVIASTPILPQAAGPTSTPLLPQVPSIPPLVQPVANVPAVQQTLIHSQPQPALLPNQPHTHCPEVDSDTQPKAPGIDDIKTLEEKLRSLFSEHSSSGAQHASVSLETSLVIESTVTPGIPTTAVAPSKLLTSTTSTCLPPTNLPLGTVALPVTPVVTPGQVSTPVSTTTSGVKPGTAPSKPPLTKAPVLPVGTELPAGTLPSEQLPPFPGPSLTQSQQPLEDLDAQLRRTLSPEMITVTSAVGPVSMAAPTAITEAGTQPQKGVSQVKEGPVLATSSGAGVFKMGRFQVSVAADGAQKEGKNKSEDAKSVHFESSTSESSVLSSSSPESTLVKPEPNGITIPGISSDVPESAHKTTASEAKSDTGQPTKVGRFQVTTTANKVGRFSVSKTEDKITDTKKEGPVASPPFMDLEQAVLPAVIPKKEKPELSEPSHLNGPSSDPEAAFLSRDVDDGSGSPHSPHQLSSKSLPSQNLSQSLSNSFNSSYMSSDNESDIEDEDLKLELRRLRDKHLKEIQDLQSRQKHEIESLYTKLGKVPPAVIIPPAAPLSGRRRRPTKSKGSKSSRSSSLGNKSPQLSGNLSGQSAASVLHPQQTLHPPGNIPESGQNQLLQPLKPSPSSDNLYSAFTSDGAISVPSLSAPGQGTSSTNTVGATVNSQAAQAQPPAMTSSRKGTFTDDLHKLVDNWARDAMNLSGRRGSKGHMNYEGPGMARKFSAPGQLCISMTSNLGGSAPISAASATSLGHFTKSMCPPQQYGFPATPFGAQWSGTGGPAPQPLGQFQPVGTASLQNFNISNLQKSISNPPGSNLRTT
# Sequence of Casein kinase I isoform gamma-3 (Homo sapiens) (Q9Y6M4 whole entry, looked up, canonical isoform): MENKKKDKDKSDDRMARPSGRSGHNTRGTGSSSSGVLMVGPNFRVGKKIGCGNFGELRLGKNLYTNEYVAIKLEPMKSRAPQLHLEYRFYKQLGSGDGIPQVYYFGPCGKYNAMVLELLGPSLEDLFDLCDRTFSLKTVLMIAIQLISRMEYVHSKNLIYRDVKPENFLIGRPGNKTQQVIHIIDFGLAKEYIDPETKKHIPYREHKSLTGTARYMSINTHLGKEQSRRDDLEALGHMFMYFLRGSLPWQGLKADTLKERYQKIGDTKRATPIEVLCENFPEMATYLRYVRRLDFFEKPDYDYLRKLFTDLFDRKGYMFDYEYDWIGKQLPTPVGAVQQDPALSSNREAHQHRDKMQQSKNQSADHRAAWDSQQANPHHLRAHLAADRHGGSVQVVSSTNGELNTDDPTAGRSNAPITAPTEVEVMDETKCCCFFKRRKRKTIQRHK
# Sequence of Calcium/calmodulin-dependent protein kinase type 1D (Homo sapiens) (Q8IU85 whole entry, looked up): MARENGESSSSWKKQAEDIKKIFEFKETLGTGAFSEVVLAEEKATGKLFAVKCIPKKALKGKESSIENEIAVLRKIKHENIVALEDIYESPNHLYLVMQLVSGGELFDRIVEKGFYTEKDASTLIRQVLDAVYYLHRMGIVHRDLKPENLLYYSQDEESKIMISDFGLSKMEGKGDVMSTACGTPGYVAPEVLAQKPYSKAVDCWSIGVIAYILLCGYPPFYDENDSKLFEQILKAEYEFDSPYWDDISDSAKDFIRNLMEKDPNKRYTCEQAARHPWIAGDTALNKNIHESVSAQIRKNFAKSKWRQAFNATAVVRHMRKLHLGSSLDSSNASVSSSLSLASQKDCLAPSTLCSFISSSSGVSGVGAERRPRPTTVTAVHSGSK
# Sequence of Mitogen-activated protein kinase kinase kinase 20 (Homo sapiens) (Q9NYL2 2-800 limits assumed): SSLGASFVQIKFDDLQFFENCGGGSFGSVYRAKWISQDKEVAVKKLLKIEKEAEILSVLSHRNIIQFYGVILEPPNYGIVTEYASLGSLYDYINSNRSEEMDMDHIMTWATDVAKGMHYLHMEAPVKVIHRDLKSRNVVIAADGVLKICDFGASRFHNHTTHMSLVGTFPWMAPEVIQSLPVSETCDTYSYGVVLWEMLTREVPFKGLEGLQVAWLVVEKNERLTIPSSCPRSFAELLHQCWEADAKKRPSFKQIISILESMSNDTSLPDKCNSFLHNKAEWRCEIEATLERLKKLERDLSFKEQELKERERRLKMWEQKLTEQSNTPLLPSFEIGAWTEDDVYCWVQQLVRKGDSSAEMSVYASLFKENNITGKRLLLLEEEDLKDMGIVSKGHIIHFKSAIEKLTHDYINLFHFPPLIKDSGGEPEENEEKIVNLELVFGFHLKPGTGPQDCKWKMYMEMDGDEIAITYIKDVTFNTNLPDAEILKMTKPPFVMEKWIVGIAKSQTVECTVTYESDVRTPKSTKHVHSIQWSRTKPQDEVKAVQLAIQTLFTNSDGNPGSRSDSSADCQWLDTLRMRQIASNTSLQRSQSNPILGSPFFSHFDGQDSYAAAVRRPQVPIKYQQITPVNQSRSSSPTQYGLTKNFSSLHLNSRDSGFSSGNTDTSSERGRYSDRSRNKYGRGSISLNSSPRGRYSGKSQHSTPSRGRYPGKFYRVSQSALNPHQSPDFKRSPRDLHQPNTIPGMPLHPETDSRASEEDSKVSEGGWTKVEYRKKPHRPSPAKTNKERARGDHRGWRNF
# Sequence of Proto-oncogene tyrosine-protein kinase Src (P12931 2-536 limits assumed): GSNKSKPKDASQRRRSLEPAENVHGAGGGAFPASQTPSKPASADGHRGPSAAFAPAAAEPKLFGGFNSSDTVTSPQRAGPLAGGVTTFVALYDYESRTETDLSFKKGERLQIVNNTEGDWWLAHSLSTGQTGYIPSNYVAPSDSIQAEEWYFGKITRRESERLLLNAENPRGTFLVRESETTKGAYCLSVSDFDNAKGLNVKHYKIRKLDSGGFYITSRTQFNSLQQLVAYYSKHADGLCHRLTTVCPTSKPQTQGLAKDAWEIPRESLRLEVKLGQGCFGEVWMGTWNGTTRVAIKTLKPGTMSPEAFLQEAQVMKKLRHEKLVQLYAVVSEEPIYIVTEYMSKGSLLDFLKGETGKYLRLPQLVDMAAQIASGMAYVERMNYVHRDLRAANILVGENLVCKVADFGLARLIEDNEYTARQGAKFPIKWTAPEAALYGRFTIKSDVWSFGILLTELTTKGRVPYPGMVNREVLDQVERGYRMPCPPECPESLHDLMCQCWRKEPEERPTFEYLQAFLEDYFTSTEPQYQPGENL
# Sequence of Histamine H1 receptor (P35367 whole entry): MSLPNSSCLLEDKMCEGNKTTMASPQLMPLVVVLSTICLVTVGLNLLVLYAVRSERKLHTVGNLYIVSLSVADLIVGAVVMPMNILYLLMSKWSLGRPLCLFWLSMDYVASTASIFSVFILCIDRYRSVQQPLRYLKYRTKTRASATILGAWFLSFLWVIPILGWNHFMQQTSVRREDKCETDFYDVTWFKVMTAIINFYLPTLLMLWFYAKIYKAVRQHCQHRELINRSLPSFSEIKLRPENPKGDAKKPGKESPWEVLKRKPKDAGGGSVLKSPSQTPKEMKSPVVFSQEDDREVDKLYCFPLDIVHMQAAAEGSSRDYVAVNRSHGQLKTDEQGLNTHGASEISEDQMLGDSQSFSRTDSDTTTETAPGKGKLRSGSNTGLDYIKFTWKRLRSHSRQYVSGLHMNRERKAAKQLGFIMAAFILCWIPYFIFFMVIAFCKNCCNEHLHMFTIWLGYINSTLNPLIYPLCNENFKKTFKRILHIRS
smiles,measurement,setting,value
C=CC(=O)Nc1ccc(C(=O)Nc2[nH]nc3c2CN(C(=O)N[C@H](CN(C)C)c2ccccc2)C3(C)C)cc1,% of engagement,[1],4.5%
COCC(=O)NC/C=C/c1ccc2ncnc(Nc3ccc(Oc4ccc(C)nc4)c(C)c3)c2c1 [CP-724714],% of control,[2],97%
Nc1cnc(N2CCc3cc(S(=O)(=O)Nc4c(F)cc(Cl)cc4F)cc(N4CCCC4=O)c32)nc1 [TP-020n],% of control,[3],100%
COc1cc(C(=O)N2CC[C@@H](O)[C@@H](N)C2)cc2nc(-c3cc4ccccc4n3CC3CC3)n(C)c12,pXC50,Histamine H1 receptor,< 4.4 M
CNC(=O)Nc1ccc(-c2nc(N3CC4CCC(C3)O4)c3cnn(C4CCC5(CC4)OCCO5)c3n2)cc1,% of control,[4],76%
same,% of control,[5],96%
same,% of inhibition,[6],-1%
CC[C@@H]1[C@H](F)C(=O)N[C@@H]1COc1nccc2cc(C(N)=O)c(OC)cc12 [ZIMLOVISERTIB],% of inhibition,[7],7.43%
same,% of inhibition,[8],21.3%
same,% of inhibition,[9]; at 0.01 µM,-10%
same,% of inhibition,[9]; at 0.04 µM,-5.8%
same,% of inhibition,[9]; at 0.2 µM,-8.2%
same,% of inhibition,[9]; at 1 µM,-2.9%
same,% of inhibition,[9]; at 5 µM,-12.1%
CCN(CC)CCCCNc1ncc2cc(-c3cc(OC)cc(OC)c3)c(NC(=O)NC(C)(C)C)nc2n1,% of control,[10],100%
CN(C)C/C=C/C(=O)Nc1ccc(C(=O)N2CCCC(Nc3ncc(Cl)c(-c4c[nH]c5ccccc45)n3)C2)cc1 (stereo unspecified),% of control,[11],100%
